Experimental data reported in BindingDB's records for patent US11401286 (Tetra Discovery Partners, LLC, 2022).

Assays:
[1] = target: cAMP-specific 3',5'-cyclic phosphodiesterase 4B [S133D] (Human, UniProt Q07343, S133D); assay: Kinetic Assay
[2] = target: Isoform 7 of cAMP-specific 3',5'-cyclic phosphodiesterase 4D (Human, UniProt Q08499); assay: Kinetic Assay
Isoform 7 of cAMP-specific 3',5'-cyclic phosphodiesterase 4D, sequence (Q08499 as listed by the source): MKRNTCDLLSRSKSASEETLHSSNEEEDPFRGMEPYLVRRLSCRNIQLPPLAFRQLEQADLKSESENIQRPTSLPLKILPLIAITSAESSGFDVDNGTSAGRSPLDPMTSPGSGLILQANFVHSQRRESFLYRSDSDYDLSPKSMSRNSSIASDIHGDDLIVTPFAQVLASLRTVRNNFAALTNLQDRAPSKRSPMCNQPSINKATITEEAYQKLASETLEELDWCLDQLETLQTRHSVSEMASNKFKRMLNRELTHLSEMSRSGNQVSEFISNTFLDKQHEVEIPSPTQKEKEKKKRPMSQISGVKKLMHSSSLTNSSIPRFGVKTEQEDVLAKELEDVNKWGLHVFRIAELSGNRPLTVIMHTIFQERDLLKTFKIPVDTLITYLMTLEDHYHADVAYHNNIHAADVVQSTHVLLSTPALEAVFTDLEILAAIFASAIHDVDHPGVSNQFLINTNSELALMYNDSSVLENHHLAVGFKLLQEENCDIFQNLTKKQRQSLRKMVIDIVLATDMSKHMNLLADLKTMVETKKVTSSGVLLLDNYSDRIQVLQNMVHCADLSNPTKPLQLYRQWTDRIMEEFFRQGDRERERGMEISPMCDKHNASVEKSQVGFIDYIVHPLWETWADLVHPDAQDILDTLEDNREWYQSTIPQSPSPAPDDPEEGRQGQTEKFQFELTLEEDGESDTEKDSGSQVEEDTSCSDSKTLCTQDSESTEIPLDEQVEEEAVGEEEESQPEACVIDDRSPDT

cAMP-specific 3',5'-cyclic phosphodiesterase 4B [S133D], sequence (Q07343 whole entry S133D, canonical isoform): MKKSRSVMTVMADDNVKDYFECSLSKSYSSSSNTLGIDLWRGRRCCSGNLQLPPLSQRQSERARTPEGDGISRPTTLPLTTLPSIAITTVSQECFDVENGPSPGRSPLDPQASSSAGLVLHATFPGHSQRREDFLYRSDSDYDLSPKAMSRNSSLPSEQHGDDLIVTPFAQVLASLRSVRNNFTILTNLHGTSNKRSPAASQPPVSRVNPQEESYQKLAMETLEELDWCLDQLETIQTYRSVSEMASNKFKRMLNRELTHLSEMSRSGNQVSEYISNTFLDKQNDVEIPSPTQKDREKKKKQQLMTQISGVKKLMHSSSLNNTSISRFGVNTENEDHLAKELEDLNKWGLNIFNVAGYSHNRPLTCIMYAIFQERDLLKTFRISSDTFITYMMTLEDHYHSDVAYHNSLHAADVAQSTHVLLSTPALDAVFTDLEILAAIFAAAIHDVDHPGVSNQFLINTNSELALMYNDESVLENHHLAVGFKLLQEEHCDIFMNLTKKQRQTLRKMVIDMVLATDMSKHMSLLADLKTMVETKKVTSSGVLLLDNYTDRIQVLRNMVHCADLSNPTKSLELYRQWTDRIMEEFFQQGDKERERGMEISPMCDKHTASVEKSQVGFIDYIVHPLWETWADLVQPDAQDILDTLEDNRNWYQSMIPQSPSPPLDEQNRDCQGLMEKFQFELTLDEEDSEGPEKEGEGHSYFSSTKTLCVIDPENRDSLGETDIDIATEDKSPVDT

SMILES: OCCc1ccc(Nc2cc(-c3cccc(Cl)c3)nc3c2CCC3)cn1 [US11401286, Example 90]
- IC50 [1]: > 1000 nM
- IC50 [2]: > 1000 nM

SMILES: CCc1c(C)nc(-c2ccc(Cl)s2)nc1Nc1ccc(Cn2nccn2)cc1 [US11401286, Example 300]
- IC50 [1]: < 1000 nM

SMILES: Cc1nc(Nc2ccc(CC(=O)O)cc2)nc(-c2ccc(Cl)s2)n1 [US11401286, Example 22]
- IC50 [1]: > 1000 nM
- IC50 [2]: > 1000 nM

SMILES: NC(=O)Cc1ccc(Nc2cc(C3CCCC3)nc3c2CCC3)cc1 [US11401286, Example 247]
- IC50 [1]: < 1000 nM
- IC50 [2]: > 1000 nM

SMILES: N#CC1CCC(c2cc(Nc3ccc(CC(N)=O)cc3)c3c(n2)CCC3)C1 (centres undefined) [US11401286, Example 138]
- IC50 [1]: < 1000 nM
- IC50 [2]: > 1000 nM
